Four compounds from patent US12037336B2, “Compounds with activity as inhibitors of the epithelial sodium channel (ENaC)” (Enterprise Therapeutics Limited, priority 2018, dated 2024) can be followed below.

Counter-ions that a name gives are not always drawn.

The assay has as its target T1, ENaC (Homo sapiens, UniProt P37088+P51168+P51170).
T1 construct: host or cells: primary human bronchial epithelial cells (HBECs), differentiated at an air-liquid interface
T1 sequence (P37088 1-669): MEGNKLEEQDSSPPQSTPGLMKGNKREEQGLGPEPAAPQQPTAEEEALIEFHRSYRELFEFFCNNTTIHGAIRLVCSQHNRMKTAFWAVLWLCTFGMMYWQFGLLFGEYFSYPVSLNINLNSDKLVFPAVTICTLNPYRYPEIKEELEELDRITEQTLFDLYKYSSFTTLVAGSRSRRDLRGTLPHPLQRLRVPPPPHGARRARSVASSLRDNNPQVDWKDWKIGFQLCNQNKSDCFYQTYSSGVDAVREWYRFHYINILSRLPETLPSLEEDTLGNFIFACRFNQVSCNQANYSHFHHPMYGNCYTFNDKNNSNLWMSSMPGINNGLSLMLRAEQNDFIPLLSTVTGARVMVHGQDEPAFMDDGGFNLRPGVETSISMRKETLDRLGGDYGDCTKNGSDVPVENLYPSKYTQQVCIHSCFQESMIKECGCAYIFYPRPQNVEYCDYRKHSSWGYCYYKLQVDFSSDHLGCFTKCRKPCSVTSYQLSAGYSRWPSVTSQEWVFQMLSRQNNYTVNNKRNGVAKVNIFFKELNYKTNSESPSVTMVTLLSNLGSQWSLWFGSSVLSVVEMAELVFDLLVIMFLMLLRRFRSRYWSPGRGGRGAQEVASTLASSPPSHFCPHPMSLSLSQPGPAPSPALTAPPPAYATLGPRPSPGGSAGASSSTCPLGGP
T1 sequence (P51168 1-640): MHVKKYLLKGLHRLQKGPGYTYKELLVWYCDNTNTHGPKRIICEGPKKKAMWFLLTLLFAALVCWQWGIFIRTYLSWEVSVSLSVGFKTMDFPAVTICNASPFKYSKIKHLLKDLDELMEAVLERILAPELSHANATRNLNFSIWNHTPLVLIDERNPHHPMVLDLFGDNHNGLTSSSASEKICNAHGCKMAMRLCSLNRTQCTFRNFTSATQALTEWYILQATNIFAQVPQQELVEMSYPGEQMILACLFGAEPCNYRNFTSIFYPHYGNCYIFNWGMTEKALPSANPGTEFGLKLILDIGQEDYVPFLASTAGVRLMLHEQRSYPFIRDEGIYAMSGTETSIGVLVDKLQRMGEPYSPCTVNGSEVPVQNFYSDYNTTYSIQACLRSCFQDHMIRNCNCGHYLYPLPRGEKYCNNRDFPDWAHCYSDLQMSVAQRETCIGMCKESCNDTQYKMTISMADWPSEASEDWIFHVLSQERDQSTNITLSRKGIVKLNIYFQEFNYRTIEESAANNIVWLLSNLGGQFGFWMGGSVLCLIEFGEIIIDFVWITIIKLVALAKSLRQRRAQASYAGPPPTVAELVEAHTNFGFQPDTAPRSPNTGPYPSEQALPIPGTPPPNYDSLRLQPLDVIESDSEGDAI
T1 sequence (P51170 1-649): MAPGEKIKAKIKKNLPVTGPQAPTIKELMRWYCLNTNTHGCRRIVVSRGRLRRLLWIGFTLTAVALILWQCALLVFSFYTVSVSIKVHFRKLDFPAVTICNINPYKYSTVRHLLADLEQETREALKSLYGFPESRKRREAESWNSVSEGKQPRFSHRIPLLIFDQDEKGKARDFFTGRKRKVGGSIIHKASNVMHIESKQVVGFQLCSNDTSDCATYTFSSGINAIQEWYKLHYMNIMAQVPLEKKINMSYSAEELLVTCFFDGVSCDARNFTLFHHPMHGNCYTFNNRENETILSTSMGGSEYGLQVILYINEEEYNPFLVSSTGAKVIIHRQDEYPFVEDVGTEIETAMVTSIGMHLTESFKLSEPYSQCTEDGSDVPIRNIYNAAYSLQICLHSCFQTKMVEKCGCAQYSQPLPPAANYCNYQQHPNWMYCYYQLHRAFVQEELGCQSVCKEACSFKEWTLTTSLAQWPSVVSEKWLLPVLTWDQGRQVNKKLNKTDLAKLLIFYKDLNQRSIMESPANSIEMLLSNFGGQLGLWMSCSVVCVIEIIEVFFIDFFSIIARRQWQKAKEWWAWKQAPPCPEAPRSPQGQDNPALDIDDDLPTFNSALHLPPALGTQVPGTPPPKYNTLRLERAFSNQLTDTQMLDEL
The experiment in a line: Short circuit current assay to determine ENaC blocker potency in human bronchial epithelial cells. The class given is cell-based. The conditions noted are these: 50% inhibition of the total amiloride-sensitive short-circuit current (ISC) in human bronchial epithelial cells (HBECs) at air-liquid interface; apical addition; read-out: Averages · ENaC IC50 (nM) Avg. The protocol:
Example 6 Short circuit current assay to determine ENaC blocker potency in human bronchial epithelial cells
Cell culture Human bronchial epithelial cells (HBECs) (Lonza, UK) were cultured using a modification of the method described by Coote et al, (2008). Cells were seeded into plastic T-75 flasks and grown in Bronchial Epithelial Cell Growth Medium (BEGM) (Lonza, UK) supplemented with bovine pituitary extract (52 ng/mL), hydrocortisone (0.5 μg/mL), human recombinant Epidermal Growth Factor (0.5 ng/mL), epinephrine (0.5 ng/mL), transferrin (10 ng/mL), insulin (5 ng/mL), retinoic acid (0.1 ng/mL), triiodothyronine (6.5 ng/mL), gentamycin (50 μg/mL) and amphotericin-B (50 ng/mL). Medium was changed every 48 hours until cells were 90% confluent. Cells were then passaged and seeded (8.25×10^5 cells/insert) onto polycarbonate Snapwell™ inserts (Costar, UK) in differentiation media containing 50% DMEM in BGEM with the same supplements as above but without triiodothyronine and a final retinoic acid concentration of 50 nM (all-trans retinoic acid; Sigma-Aldrich, UK). Cells were maintained submerged for the first 7 days in culture after which time they were exposed to an apical air interface for the remainder of the culture period. From the first day of establishment of an ALI, HBEC were fed with a DMEM:HAMS F-12 (1:1) media containing 2% Ultroser G (Pall BioSepra, France) with gentamycin (50 μg/mL) and amphotericin B (50 ng/mL). Cells were used for short-circuit current assay between days 14-21 after the establishment of the ALI. At all stages of culture, cells were maintained at 37° C. in 5% CO2 in an air incubator.
Short-Circuit Current (ISC) Measurements
Snapwell inserts were mounted in Costar Vertical Diffusion Chambers (Costar, UK) and were bathed with continuously gassed Ringer solution (5% CO2 in O2; pH 7.4) maintained at 37° C. containing (in mM): 120 NaCl, 25 NaHCO3, 3.3 KH2PO4, 0.8 K2HPO4, 1.2 CaCl2, 1.2 MgCl2 and 10 glucose. The solution osmolarity was always between 280-300 mOsm/kg H2O for all physiological salt solutions used. Cells were voltage clamped to 0 mV (model EVC4000, WPI). Transepithelial resistance (RT) was measured by applying a 2 mV pulse at 30 s intervals and calculating RT by Ohm's law. Data were recorded using a PowerLab workstation (ADInstruments, UK).
ENaC blocker compounds were added to the apical chamber from a 1000-fold stock solution (prepared in DMSO) to achieve a cumulative concentration response in terms of the inhibition of the basal ISC. At the completion of the concentration response, a supra-maximal concentration of amiloride (10 μM) was added. The concentration of test compound that induced a 50% inhibition of the total amiloride-sensitive ISC (IC50) was calculated using GraphPad Prism v6.05. […]
What is called IC50 is the concentration that inhibits the measured activity by half. Take `CCn1c(CNC(=O)c2nc3c(C)n[nH]c3nc2N)[n+](CC)c2ccc(OC)cc21` [Example 1, 2-[({6-amino-3-methyl-1H-pyrazolo[3,4-b]pyrazin-5-yl}formamido)methyl]-1,3-diethyl-6-methoxy-1H-1,3-benzodiazol-3-ium trifluoroacetate]: the IC50 worked out at 2 nM.
Regarding `CCn1c(CNC(=O)c2nc3c(C)n[nH]c3nc2N)[n+](CC)c2ccc(C(=O)O)cc21` [Example 2, 2-[({6-amino-3-methyl-1H-pyrazolo[3,4-b]pyrazin-5-yl}formamido)methyl]-6-carboxy-1,3-diethyl-1H-1,3-benzodiazol-3-ium formate], the IC50 stood at 91.5 nM.
As for `CCn1c(CNC(=O)c2nc3cn[nH]c3nc2N)[n+](CC)c2ccc(C(=O)O)cc21` [Example 3], the figure is 106 nM; as for `CCn1c(CNC(=O)c2nc3cn[nH]c3nc2N)[n+](CC)c2ccc(C(=O)N3CCC(N(C[C@H](O)[C@@H](O)[C@H](O)[C@H](O)CO)C[C@H](O)[C@@H](O)[C@H](O)[C@H](O)CO)CC3)cc21` [Example 4, 2-[({6-amino-1H-pyrazolo[3,4-b]pyrazin-5-yl}formamido)methyl]-6-(4-{bis[(2S,3R,4R,5R)-2,3,4,5,6-pentahydroxyhexyl]amino}piperidine-1-carbonyl)-1,3-diethyl-1H-1,3-benzodiazol-3-ium trifluoroacetic acid trifluoroacetate], 47 nM.
